Our source for the IC50 values is patent publication US20120264735A1 (priority 2009, published 2012).

A value given as a limit tells only on which side of the number the result lay.

The target in this test is T1, c-Met kinase (recombinant c-Met) (Homo sapiens, UniProt P08581).
T1 construct: 0.27 nM recombinant c-Met
T1 sequence (P08581 25-1390): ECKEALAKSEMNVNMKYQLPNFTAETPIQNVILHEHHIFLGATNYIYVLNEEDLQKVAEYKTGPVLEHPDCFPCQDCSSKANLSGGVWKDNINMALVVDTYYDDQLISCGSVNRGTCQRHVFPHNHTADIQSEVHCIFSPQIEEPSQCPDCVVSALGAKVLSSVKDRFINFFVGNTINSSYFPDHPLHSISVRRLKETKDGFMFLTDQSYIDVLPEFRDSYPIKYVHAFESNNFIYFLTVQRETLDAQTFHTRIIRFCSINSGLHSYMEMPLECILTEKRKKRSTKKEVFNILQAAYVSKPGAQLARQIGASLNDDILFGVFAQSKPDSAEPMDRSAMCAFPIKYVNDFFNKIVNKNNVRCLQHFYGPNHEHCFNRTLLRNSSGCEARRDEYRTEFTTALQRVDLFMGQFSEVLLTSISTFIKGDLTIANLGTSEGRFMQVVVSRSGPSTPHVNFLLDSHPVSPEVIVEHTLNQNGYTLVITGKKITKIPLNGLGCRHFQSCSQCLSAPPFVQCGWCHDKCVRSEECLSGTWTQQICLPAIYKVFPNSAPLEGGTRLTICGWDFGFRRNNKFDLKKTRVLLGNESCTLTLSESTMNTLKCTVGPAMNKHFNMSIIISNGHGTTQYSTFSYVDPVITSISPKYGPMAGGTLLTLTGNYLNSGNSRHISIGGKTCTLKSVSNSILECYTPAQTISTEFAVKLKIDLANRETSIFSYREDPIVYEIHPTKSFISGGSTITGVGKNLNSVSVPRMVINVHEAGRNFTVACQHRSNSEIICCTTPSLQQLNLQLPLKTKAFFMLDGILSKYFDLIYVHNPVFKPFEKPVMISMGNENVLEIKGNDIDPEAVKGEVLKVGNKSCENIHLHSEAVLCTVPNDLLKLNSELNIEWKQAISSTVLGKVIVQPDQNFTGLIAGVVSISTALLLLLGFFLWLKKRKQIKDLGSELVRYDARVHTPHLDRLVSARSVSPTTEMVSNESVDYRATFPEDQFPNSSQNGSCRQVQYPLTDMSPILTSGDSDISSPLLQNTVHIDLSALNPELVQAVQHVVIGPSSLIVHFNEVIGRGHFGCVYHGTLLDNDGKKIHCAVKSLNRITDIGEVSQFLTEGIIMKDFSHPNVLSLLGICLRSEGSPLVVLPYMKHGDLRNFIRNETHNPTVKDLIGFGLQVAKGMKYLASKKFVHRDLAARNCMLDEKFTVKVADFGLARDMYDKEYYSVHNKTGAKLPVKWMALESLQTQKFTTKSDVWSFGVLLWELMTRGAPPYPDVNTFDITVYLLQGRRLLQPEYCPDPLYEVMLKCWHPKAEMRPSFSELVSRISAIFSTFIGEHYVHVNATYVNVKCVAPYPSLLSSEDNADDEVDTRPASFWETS
Briefly: In vitro kinase assay I (homogeneous time-resolved fluorescence tyrosine kinase assay). The class given is biochemical. The method in brief:
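Biotinylated peptide (0.5 μM) phosphorylated by 0.2 nM recombinant c-Met with 50 μM MgATP, 60 min at room temperature, pH 7.4, 5% DMSO. EDTA stop; HTRF read with Eu-anti-phosphotyrosine antibody and streptavidin-APC. IC50 from 4-parameter logistic fit.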
In general, IC50 refers to the concentration at which inhibition is half-maximal. With `CN(C)C(=O)COc1cnc(-c2cccc(Cc3nn(-c4cnn(C)c4)ccc3=O)c2)nc1` [Example 279, N,N-dimethyl-2-{[2-(3-{[1-(1-methyl-1H-pyrazol-4-yl)-4-oxo-1,4-dihydropyridazin-3-yl]methyl}phenyl)pyrimidin-5-yl]oxy}acetamide], the IC50 is below 100 nM.

On to `CCOc1cnc(-c2cccc(C(C)c3nn(-c4cnn(CCO)c4)ccc3=O)c2)nc1` (single isomer, unassigned) [Example 255, 3-{(1S or R)-1-[3-(5-Ethoxypyrimidin-2-yl)phenyl]ethyl}-1-[1-(2-hydroxyethyl)-1H-pyrazol-4-yl]pyridazin-4(1H)-one], for which the IC50 is 100 to 1000 nM.

As to `Cn1cc(-n2ccc(=O)c(Cc3cccc(-n4cccn4)c3)n2)cn1` [Example 21, 1-(1-methyl-1H-pyrazol-4-yl)-3-[3-(1H-pyrazol-1-yl)benzyl]pyridazin-4(1H)-one], the IC50 is 1000 to 3000 nM.

`CCCOC(=O)Nc1cccc(Cc2nn(-c3cnn(CCO)c3)ccc2=O)c1` [Example 644, propyl [3-({1-[1-(2-hydroxyethyl)-1H-pyrazol-4-yl]-4-oxo-1,4-dihydropyridazin-3-yl}methyl)phenyl] carbamate]: the IC50 is below 100 nM.

Regarding `CCC(C)c1cnc(-c2cccc(Cc3nn(-c4cnn(C)c4)ccc3=O)c2)nc1` (racemic) [Example 408, rac-3-{3-[5-(Butan-2-yl)pyrimidin-2-yl]benzyl}-1-(1-methyl-1H-pyrazol-4-yl)pyridazin-4(1-1)-one], the IC50 was below 100 nM.

`Cn1cc(-n2ccc(=O)c(Cc3cccc(-c4ncc(OCC(=O)O)cn4)c3)n2)cn1` [Example 357, [2-(3-{[1-(1-Methyl-1H-pyrazol-4-yl)-4-oxo-1,4-dihydropyridazin-3-yl]methyl}phenyl)pyrimidin-5-yl]oxyacetic acid]: the IC50 was below 100 nM.

For `COCCOCCOC(=O)Nc1cccc(Cc2nn(-c3cc(F)c(F)c(F)c3)ccc2=O)c1` [Example 599, 2-(2-methoxyethoxy)ethyl (3-{[4-oxo-1-(3,4,5-trifluorophenyl)-1,4-dihydropyridazin-3-yl]methyl}phenyl)carbamate], the IC50 is below 100 nM.

As for `COCCOc1cnc(-c2cccc(Cc3nn(-c4ccc(F)c(F)c4)ccc3=O)c2)nc1` [Example 317, 1-(3,4-difluorophenyl)-3-{3-[5-(2-methoxyethoxy)pyrimidin-2-yl]benzyl}pyridazin-4(1H)-one], the 50% inhibitory concentration (IC50) is below 100 nM.

For `CCCn1cnc(-c2cccc(Cc3nn(-c4cnn(CC)c4)ccc3=O)c2)n1` [Example 87, 1-(1-ethyl-1H-pyrazol-4-yl)-3-[3-(1-propyl-1H-1,2,4-triazol-3-yl)benzyl]pyridazin-4(1H)-one], the half-maximal inhibitory concentration (IC50) is below 100 nM.

As for `CCn1cc(-n2ccc(=O)c(Cc3cccc(NC(=O)OCCN4CCOCC4)c3)n2)cn1` [Example 115, 2-morpholin-4-ylethyl (3-{[1-(1-ethyl-1H-pyrazol-4-yl)-4-oxo-1,4-dihydropyridazin-3-yl]methyl}phenyl)carbamate], the 50% inhibitory concentration (IC50) is below 100 nM.

`CC(c1cccc(-c2ncc(OC(C)C(C)(C)O)cn2)c1)c1nn(-c2cnn(C)c2)ccc1=O` (single isomer, unassigned) [Example 383, 3-{(1R or S)-1-[3-(5-{[(1R or S)-2-hydroxy-1,2-dimethylpropyl]oxy}pyrimidin-2-yl)phenyl]ethyl}-1-(1-methyl-1H-pyrazol-4-yl)pyridazin-4(1H)-one]: the IC50 was below 100 nM.

With `CCOc1cnc(-c2cccc(Cc3nn(-c4cc(F)c(Br)c(F)c4)ccc3=O)c2)nc1` [Example 147, 1-(4-bromo-3,5-difluorophenyl)-3-[3-(5-ethoxypyrimidin-2-yl)benzyl]pyridazin-4(1H)-one], the 50% inhibitory concentration (IC50) is below 100 nM.

For the compound `CC(C)COC(=O)Nc1cccc(Cc2nn(-c3cc(F)c(F)c(F)c3)ccc2=O)c1` [Example 7, 2-methylpropyl (3-{[4-oxo-1-(3,4,5-trifluorophenyl)-1,4-dihydropyridazin-3-yl]methyl}phenyl)carbamate], the IC50 was below 100 nM.

In the case of `Cn1cc(-n2ccc(=O)c(Cc3cccc(-c4ncc(OCCn5cccn5)cn4)c3)n2)cn1` [Example 265, 1-(1-methyl-1H-pyrazol-4-yl)-3-(3-{5-[2-(1H-pyrazol-1-yl)ethoxy]pyrimidin-2-yl}benzyl)pyridazin-4(1H)-one], the IC50 is below 100 nM.

As for `CC(c1cccc(-c2ncc(OC(C)C(C)(C)O)cn2)c1)c1nn(-c2cnn(C)c2)ccc1=O` (single isomer, unassigned) [Example 382, 3-{(1R or S)-1-[3-(5-{[(1R or S)-2-hydroxy-1,2-dimethylpropyl]oxy}pyrimidin-2-yl)phenyl]ethyl}-1-(1-methyl-1H-pyrazol-4-yl)pyridazin-4(1H)-one], the IC50 was below 100 nM.

As to `Cn1cc(-n2ccc(=O)c(Cc3cccc(-c4ncc(OCC(F)(F)CN5CCOCC5)cn4)c3)n2)cn1` [Example 259, 3-(3-{5-[2,2-Difluoro-3-(morpholin-4-yl)propoxy]pyrimidin-2-yl}benzyl)-1-(1-methyl-1H-pyrazol-4-yl)pyridazin-4(1H)-one], the IC50 is below 100 nM.

For the compound `CN1CCC(COc2cnc(-c3cccc(Cc4nn(-c5cc(F)cc(F)c5)ccc4=O)c3)nc2)CC1` [Example 173, 1-(3,5-difluorophenyl)-3-(3-{5-[(1-methylpiperidin-4-yl)methoxy]pyrimidin-2-yl}benzyl)pyridazin-4(1H)-one], the IC50 was below 100 nM.

In the case of `CC(C)Cc1cnc(-c2cccc(Cc3nn(-c4cnn(C)c4)ccc3=O)c2)nc1` [Example 394, 3-{3-[5-(2-methylpropyl)pyrimidin-2-yl)benzyl}-1-(1-methyl-1H-pyrazol-4-yl)pyridazin-4(1H)-one], the IC50 was below 100 nM.

Regarding `CCn1cc(-n2ccc(=O)c(Cc3cccc(NC(=O)OCCOC)c3)n2)cn1` [Example 70, 2-methoxyethyl (3-{[1-(1-ethyl-1H-pyrazol-4-yl)-4-oxo-1,4-dihydropyridazin-3-yl]methyl}phenyl)carbamate], the IC50 was below 100 nM.

For `CCn1cc(-n2ccc(=O)c(C(C)c3cccc(-c4ncc(OCc5noc(C)n5)cn4)c3)n2)cn1` (single isomer, unassigned) [Example 302, 1-(1-ethyl-1H-pyrazol-4-yl)-3-[(1R or S)-1-(3-{5-[(5-methyl-1,2,4-oxadiazol-3-yl)methoxy]pyrimidin-2-yl}phenyl)ethyl]pyridazin-4(1H)-one], the IC50 was below 100 nM.

Turning to `CNCCOC(=O)Nc1cccc(Cc2nn(-c3cc(F)c(F)c(F)c3)ccc2=O)c1` [Example 622, 2-(methylamino)ethyl (3-{[4-oxo-1-(3,4,5-trifluorophenyl)-1,4-dihydropyridazin-3-yl]methyl}phenyl)carbamate], the IC50 was below 100 nM.

Take `Cn1cc(-n2ccc(=O)c(Cc3cccc(-c4ncc(OCC5(F)CCOCC5)cn4)c3)n2)cn1` [Example 388, 3-(3-{5-[(4-fluorotetrahydro-2H-pyran-4-yl)methoxy]pyrimidin-2-yl}benzyl)-1-(1-methyl-1H-pyrazol-4-yl)pyridazin-4(1H)-one]: the IC50 was below 100 nM.

As for `CCCn1cc(-n2ccc(=O)c(Cc3cccc(NC(=O)OCC)c3)n2)cn1` [Example 112, ethyl (3-{[4-oxo-1-(1-propyl-1H-pyrazol-4-yl)-1,4-dihydropyridazin-3-yl]methyl}phenyl)carbamate], the IC50 is below 100 nM.

As to `CC(C)(O)CCOC(=O)Nc1cccc(Cc2nn(-c3cc(F)c(F)c(F)c3)ccc2=O)c1` [Example 514, 3-hydroxy-3-methylbutyl (3-{[4-oxo-1-(3,4,5-trifluorophenyl)-1,4-dihydropyridazin-3-yl]methyl}phenyl)carbamate], the IC50 is below 100 nM.

Consider `CC(c1cccc(-c2ncc(N3CCOCC3)cn2)c1)c1nn(-c2cnn(C)c2)ccc1=O` (single isomer, unassigned) [Example 244, 1-(1-methyl-1H-pyrazol-4-yl)-3-{(1R or S)-1-[3-(5-morpholin-4-ylpyrimidin-2-yl)phenyl]ethyl}pyridazin-4(1H)-one], for which the IC50 was in the range of 100 to 1000 nM.

As to `CC(C)(O)COc1cnc(-c2cccc(Cc3nn(-c4cc(F)cc(F)c4)ccc3=O)c2)nc1` [Example 363, 1-(3,5-difluorophenyl)-3-{3-[5-(2-hydroxy-2-methylpropoxy)pyrimidin-2-yl]benzyl}pyridazin-4(1H)-one], the concentration for half-maximal inhibition (IC50) was below 100 nM.

On to `Cn1cc(-n2ccc(=O)c(Cc3cccc(-c4ncc(OC5CCOC5)cn4)c3)n2)cn1` (racemic) [Example 276, rac-1-(1-methyl-1H-pyrazol-4-yl)-3-{3-[5-(tetrahydrofuran-3-yloxy)pyrimidin-2-yl]benzyl}pyridazin-4(1H)-one], for which the IC50 is below 100 nM.

With `Cn1cc(-n2ccc(=O)c(Cc3cccc(-c4ncc(-c5cn[nH]c5)cn4)c3)n2)cn1` [Example 410, 1-(1-methyl-1H-pyrazol-4-yl)-3-{3-[5-(1H-pyrazol-4-yl)pyrimidin-2-yl]benzyl}pyridazin-4(1H)-one], the IC50 was below 100 nM.

For the compound `Cn1cc(-n2ccc(=O)c(Cc3cccc(NC(=O)OCCC(F)(F)F)c3)n2)cn1` [Example 564, 3,3,3-trifluoropropyl (3-{[1-(1-methyl-1H-pyrazol-4-yl)-4-oxo-1,4-dihydropyridazin-3-yl]methyl}phenyl)carbamate], the IC50 is below 100 nM.

For the compound `N#Cc1cccc(-n2ccc(=O)c(Cc3cccc(NC(=O)OCCN4CCCC4=O)c3)n2)c1` [Example 582, 2-(2-oxopyrrolidin-1-yl)ethyl (3-{[1-(3-cyanophenyl)-4-oxo-1,4-dihydropyridazin-3-yl]methyl}phenyl)carbamate], the IC50 was below 100 nM.

As to `COCCOCCOC(=O)Nc1cccc(Cc2nn(-c3cc(F)cc(F)c3)ccc2=O)c1` [Example 608, 2-(2-methoxyethoxy)ethyl (3-{[1-(3,5-difluorophenyl)-4-oxo-1,4-dihydropyridazin-3-yl]methyl}phenyl)carbamate], the IC50 is below 100 nM.

`CC(C)COC(=O)Nc1cccc(Cc2nn(-c3cnn(CC(F)(F)F)c3)ccc2=O)c1` [Example 93, 2-methylpropyl [3-({4-oxo-1-[1-(2,2,2-trifluoroethyl)-1H-pyrazol-4-yl]-1,4-dihydropyridazin-3-yl}methyl)phenyl]carbamate]: the IC50 is below 100 nM.
